Experimental data published in patent US12629390B2, “Stabilized amorphous calcium carbonate for treatment of neurological, muscular and infertility diseases or conditions” (AMORPHICAL LTD., priority 2016, dated 2026).

What was measured:
mice embryos = assay: in vitro embryo development in Quinn's Advantage cleavage media; type: cell-based
Procedure: CBA male mice were bred with BL C57 female mice. The mice were kept on a 12 hours photoperiod schedule with unlimited water and food supply. About 6 to 8 weeks after receiving offspring, each female mouse was injected IP with 5IU of pregnant mare serum gonadotropin (PMSG).
After 48 hours each female mouse was injected IP with 5IU human chorionic gonadotropin (hCG). Male mice proven to be fertile were then put together with the superovulated females. The next morning the female mice were examined for the presence of copulatory plugs. Females that had copulatory plugs were euthanized after 24 hours (approximately 36 hours post-coitus) and embryos at 2 cell stage were retrieved from the oviducts as following: the oviducts were dissected in Quinn's Advantage cleavage media (SAGE, Origio, Denmark) and the embryos were transferred to 20 μL drops with Quinn's Advantage cleavage media (SAGE, Origio, Denmark) overlaid with mineral oil and cultured at 37.0° C. under 5% CO2 and atmospheric oxygen. The collected embryos continued to grow, i.e. in-vitro culture (IVC), until blastocyst/hatching stage. To test the effect of amorphous calcium carbonate, the Quinn's Advantage cleavage media (“cleavage media” hereinafter) was supplemented with different additives, i.e. amorphous calcium carbonate stabilized by polyphosphate (ACC-PP), crystalline calcium carbonate (CCC), polyphosphate (PP), phosphoserine (PS) or sodium carbonate ([…]). All supplements were added as a freshly prepared suspension; the preparation of the ACC supplements were performed under aseptic conditions. Untreated cleavage media (without addition of any additive) was used as a control (identified as Cont Q). The embryos were evaluated every day by microscope observation for a detection of the following stages: 2 cells, compactions stage, blastocysts formation and hatching stage. The fraction (in percent) of the embryos reached each stage was calculated (the number of 2 cells embryos was set as 100%).

mdx cell line = assay: myotube formation, CK activity and contraction in mdx cell line; type: cell-based, mice; settings: final Ca2+ 2 mM in Fusion Medium
Procedure: Cells from the Mdx cell line were seeded in a Gelatin coated 12 wells culture plate, 3×10^4 cells/well containing 1 mL of Proliferation Medium. Two days later (˜66% confluence), the medium was changed to Fusion Medium which was changed twice a week. The various calcium preparations were separately added to the Fusion Medium according to the treatment described in Table 3. Cultures were enriched with the various calcium preparations, at Ca^2+ concentration of 1 mM. Since the medium already contained 1 mM of calcium ions, then the final concentration of Ca2+ was of 2 mM.
The effects of the tested calcium preparations on cell proliferation, fusion to form myotubes and muscle contraction were monitored by daily phase contrast microscopic observation. At predetermined days, cultures were fixed in methanol for 20 minutes and then stained with Giemsa in order to evaluate the number of myotubes formed with time in cultures.
At predetermined days, cells were collected from culture wells (using a rubber policeman) and kept in 1 mL PBS (without Ca^2+) at −70° C. until analyzed. For CK measurement cell samples were thawed and physically lysed using a sonicator, to release the CK from muscle myotubes. CK concentration was determined using Creatine Kinase Activity Assay Kit (CK-NAC REAGENT SET, CURTISS, CHEM-INDEX INC, Hialeah, FL, USA).

[1] = tested on: healthy skeletal muscle cultures; assay: myotube formation and contraction in healthy skeletal muscle cultures; type: cell-based, rat; settings: added at 1 mM (final Ca2+ 2 mM)
Procedure: Stationary skeletal muscle cultures were prepared from healthy 1 day new born rat (Sprague Dawley, Harlan, Israel). The muscle tissue was dissected from posterior legs and was thoroughly minced. Digestion was performed with Trypsin-EDTA while gentle trituration. After 30 min the supernatant, containing dissociated cells, was collected and a fresh Trypsin-EDTA was added. This procedure was repeated two more times. Then, all supernatants were pooled, centrifuged, and the cell pellet was re-suspended in Proliferation Medium. Cells were seeded in a Gelatin coated 12 wells culture plates, 1×10^5 cells/well containing 1 mL of Proliferation Medium. Two days later, the medium was changed to Fusion Medium, which was then changed twice a week. The cultures were monitored by daily phase contrast microscopic observations from 24 hours after setting the cultures and onward.
Stock solution of 1% porcine gelatin in water, was sterilized by autoclave. Once cooled, 500 μl of the solution were added to each well of the 12-wells culture plat. After incubation for 20 min at room temperature, the excess solution was removed, and the cells were seeded.
For the proliferation stage, cells were cultured in: DMEM/F12 (containing 1 mM Ca^2+) +10% FBS, 25 μg/mL Gentamycin, and 2 mM L-Glutamine.
For the fusion stage the Proliferation Medium was changed with Fusion Medium, which was prepared as following: DMEM/F12 (containing 1 mM Ca2+), 2% horse serum (HS), 2 mM L-Glutamine, 25 μg/mL Gentamycin, and 4 units/100 mL Insulin (all purchased from Biological-Industries, Israel).
Control cultures were grown without further added calcium, or cultures enriched with free (soluble) stabilizer. The experiment was blinded by marking the various calcium preparations with arbitrary numerals only.
The components were added in one of the following ways: (i) aqueous suspensions of dry material; (ii) aqueous suspension of fresh material (before drying), or (iii) dissolved with HCl (to mimic the acidity which exists in the stomach. After dissolving was accomplished, the formed solutions were neutralized with 1M NaOH).

[2] = Example 9 Test A, 1.7 mM in cleavage media
[3] = Example 9 Test B, 1.7 mM CaCl2 or ACC-PP in cleavage media
[4] = Example 10, 1.7 mM CaCl2 or ACC-PP in cleavage media
[5] = Example 11, 1.7 mM in cleavage media
[6] = Example 12, mouse 1, embryos grown separately, 1.7 mM in cleavage media
[7] = Example 12, mouse 2, embryos grown separately, 1.7 mM in cleavage media
[8] = Example 12, mouse 3, embryos grown separately, 1.7 mM in cleavage media
[9] = Example 12, mouse 4, embryos grown separately, 1.7 mM in cleavage media
[10] = Example 16, pooled embryos, 1.7 mM in cleavage media

With `[Ca+2].[Cl-].[Cl-]` [CaCl2, calcium chloride] the “Blast/d3: number of embryos” value (mice embryos; [2]) was 16, the “Blast/d3: portion of the initial number of embryos” value (“Blast/d3: portion” below) (mice embryos; [2]) was 64% and the “Comp/d2: portion of the initial number of embryos” value (shortened to “Comp/d2: portion”) (mice embryos; [2]) was 64%. The “comp/d2: number of embryos” value (mice embryos; [2]) was 16, the “Blast/d3: number of embryos” value (mice embryos; [3]) was 20 and the “Blast/d3: portion” value (mice embryos; [3]) was 74%. The “Comp/d2: portion” value (mice embryos; [3]) was 70%, the “Hatch/d4: number of embryos” value (mice embryos; [3]) was 11 and the “Hatch/d4: portion of the initial number of embryos” value (from here on “Hatch/d4: portion”) (mice embryos; [3]) was 40.7%. For the same compound, the “comp/d2: number of embryos” value (mice embryos; [3]) was 20, the “Blast/d3: number of embryos” value (mice embryos; [4]) was 8 and the “Blast/d3: portion” value (mice embryos; [4]) was 80%. For the same compound, the “Comp/d2: portion” value (mice embryos; [4]) was 30%, the “Hatch/d4: number of embryos” value (mice embryos; [4]) was 3 and the “Hatch/d4: portion” value (mice embryos; [4]) was 30%. For the same compound, the “comp/d2: number of embryos” value (mice embryos; [4]) was 3, the “Blast/d3: number of embryos” value (mice embryos; [5]) was 24 and the “Blast/d3: portion” value (mice embryos; [5]) was 80%. The “Comp/d2: portion” value (mice embryos; [5]) was 53.3%, the “Hatch/d4: number of embryos” value (mice embryos; [5]) was 13 and the “Hatch/d4: portion” value (mice embryos; [5]) was 43.3%. The “comp/d2: number of embryos” value (mice embryos; [5]) was 16, the “2Cell/d1: number of embryos” value (mice embryos; [6]) was 3 and the “8Cell/d2: number of embryos” value (mice embryos; [6]) was 2. For the same compound, the “Blast/d3: number of embryos” value (mice embryos; [6]) was 1, the “Blast/d3: portion” value (mice embryos; [6]) was 8.3% and the “Hatch/d4: number of embryos” value (mice embryos; [6]) was 0 (0). The “Hatch/d4: portion” value (mice embryos; [6]) was 0 (0) %, the “comp/d2: number of embryos” value (mice embryos; [6]) was 1 and the “irreg/d1: number of embryos” value (mice embryos; [6]) was 9. For the same compound, the “2Cell/d1: number of embryos” value (mice embryos; [7]) was 3, the “8Cell/d2: number of embryos” value (mice embryos; [7]) was 0 and the “Blast/d3: number of embryos” value (mice embryos; [7]) was 2. For the same compound, the “Blast/d3: portion” value (mice embryos; [7]) was 22.2%, the “Hatch/d4: number of embryos” value (mice embryos; [7]) was 0 (0) and the “Hatch/d4: portion” value (mice embryos; [7]) was 0 (0) %. For the same compound, the “comp/d2: number of embryos” value (mice embryos; [7]) was 3, the “irreg/d1: number of embryos” value (mice embryos; [7]) was 6 and the “2Cell/d1: number of embryos” value (mice embryos; [8]) was 7. The “8Cell/d2: number of embryos” value (mice embryos; [8]) was 0, the “Blast/d3: number of embryos” value (mice embryos; [8]) was 5 and the “Blast/d3: portion” value (mice embryos; [8]) was 50%. The “Hatch/d4: number of embryos” value (mice embryos; [8]) was 3, the “Hatch/d4: portion” value (mice embryos; [8]) was 30% and the “comp/d2: number of embryos” value (mice embryos; [8]) was 6. For the same compound, the “irreg/d1: number of embryos” value (mice embryos; [8]) was 3, the “2Cell/d1: number of embryos” value (mice embryos; [9]) was 14 and the “8Cell/d2: number of embryos” value (mice embryos; [9]) was 4. The “Blast/d3: number of embryos” value (mice embryos; [9]) was 12, the “Blast/d3: portion” value (mice embryos; [9]) was 66.7% and the “Hatch/d4: number of embryos” value (mice embryos; [9]) was 7. For the same compound, the “Hatch/d4: portion” value (mice embryos; [9]) was 41.2%, the “comp/d2: number of embryos” value (mice embryos; [9]) was 10 and the “irreg/d1: number of embryos” value (mice embryos; [9]) was 4. The “effect on embryonic development (percentages of blastocysts and hatched blastocysts)” value (mice embryos; Example 16, 1.7 mM in cleavage media) was “negative effect”, the “8 cell/d2: number of embryos” value (mice embryos; [10]) was 6 and the “Blast/d3: number of embryos” value (mice embryos; [10]) was 10. The “Blast/d3: portion” value (mice embryos; [10]) was 90.90%, the “Hatch/d4: number of embryos” value (mice embryos; [10]) was 4 and the “Hatch/d4: portion” value (mice embryos; [10]) was 36.36%. For the same compound, the “comp/d2: number of embryos” value (mice embryos; [10]) was 5, the “muscle contractions observed, day after seeding” value (mdx cell line) was ≥ 10 days and the “muscle fibers after 7 days” value [1] was “fewer, thinner and shorter muscle fibers”. For the same compound, the “early formation of many myotubes, time of cultivation” value ([1]; dry powder suspended in water) was “later”.
